Results as given in patent US3931198A, “2-Amino-5-spiro substituted oxazoline-4-one compounds” (Abbott Laboratories, priority 1973, dated 1976).

Key:
central nervous system = experiment: CNS activity (depressant or stimulant) in test mice; assay type: in vivo; conditions: i.p.
Method: (§1) Table VI below details the activity of the various species of this series along with the dosages utilized expressed in mg/kg of body weight and the lethal dosage at which 50 percent of the animals expire (^LD 50) for each of the compounds. Unless otherwise indicated, the dosage and the ^LD 50 were administered by intraperitoneal injection. It is to be understood, of course, that the particular route of administration is not critical to the manifestation of biological effects.

[1] = LD50, lethal dosage at which 50 percent of the animals expire; conditions: mouse, in vivo, ip; mice, intraperitoneal injection unless otherwise indicated
Method: as §1

rats = experiment: Learning and retention (escape time, jump out test) after electroconvulsive shock on a modified Cook-Weidley apparatus; assay type: in vivo; conditions: for Mean Escape Time, Retention Trial: 1 hour after last acquisition trial
Method: In addition to the foregoing activity, the administration of some of these novel compounds to warm-blooded animals results in an increased rate of learning by the animal coupled with a prolonged period of retention of the learned behavior.
The behavioral effects resulting from the administration of these compounds to rats were evaluated on a modified Cook-Weidley apparatus (L. Cook and E. Weidley, Ann. N.Y. Acad. Sci., 66, 790, 1957). The apparatus consists of a chamber with a grid flooring and an escape platform outside the chamber. The electric shock to the grid floor was controlled by a rheostat mechanism and scrambler. Rats were divided into 2 groups for each test trial. One group was administered saline as the control and the other group the test compound about 1/2 hour prior to electroconvulsive shock. It is known that electroconvulsive shock induces a state of proactive amnesia or an impaired learning rate (Deutsch, J.A., 1962, Ann. Rev. Psychol., 24, 259). Then, 15 minutes after electroconvulsive shock, the rats were given 10 acquisition trials on the jump out test to measure learning rates. Each acquisition trial consisted of 15 seconds in the chamber without any stimulation followed by 10 seconds of buzzer stimulation and culminated by 5 seconds of buzzer-plus-shock stimulation. The time from entrance into the apparatus until the rat jumps out is recorded as the escape time. Retention of the learned behavioral pattern was tested by repeating the test one hour after the last acquisition trial. The test sequence for each trial was terminated upon successful completion of the task, e.g., jumping out of the chamber. EFFECT OF 2-AMINO-8-METHYL-1-OXA-3,8-DIAZASPIRO [4,5]DEC-2-EN-4-ONE INTRAPERITONEAL ADMINISTRATION Mean Escape Time -- Sec. Trial Test Cpd. -- 10 mg/kg Control ______________________________________ 1 29.8 ± 0.3 30.0 ± 0.0 2 29.5 ± 0.5 29.3 ± 0.8 3 13.8 ± 1.7 26.0 ± 2.4 4 12.0 ± 2.1 22.0 ± 3.6 5 7.0 ± 1.6 22.3 ± 3.8 6 7.8 ± 1.5 18.5 ± 1.9 7 6.5 ± 1.6 18.0 ± 2.3 8 7.0 ± 2.2 13.0 ± 2.9 9 10.8 ± 3.0 15.6 ± 2.1 10 9.0 ± 1.2 13.9 ± 1.7 Retention Trial -- 1 hour after last Acquisition Trial: 13.8 ± 1.4 15.8 ± 3.3 EFFECT OF 2-AMINO-7,7,9-TRIMETHYL-1-OXA-3-AZASPIRO [4,5]DEC-2-EN-4-ONE INTRAPERITONEAL ADMINISTRATION Mean Escape Time -- Sec. Trial Test Cpd. 20 mg/kg Control ______________________________________ 1 30.0 ± 0.0 30.0 ± 0.0 2 29.0 ± 0.4 29.5 ± 0.2 3 21.2 ± 3.0 19.7 ± 5.2 4 17.7 ± 5.4 20.2 ± 5.3 5 14.7 ± 1.8 18.0 ± 2.7 6 18.0 ± 3.9 18.5 ± 3.6 7 10.0 ± 2.1 20.2 ± 4.7 8 5.5 ± 1.8 16.5 ± 3.8 9 6.7 ± 2.5 18.7 ± 5.0 10 7.2 ± 2.8 13.7 ± 4.4 Retention Trial -- 1 hour after last Acquisition Trial: 8.0 ± 2.6 20.2 ± 3.3 EFFECT OF 2-AMINO-7,9-DIMETHYL-1-OXA-3-AZASPIRO [4,5]DEC-2-EN-4-ONE ORAL ADMINISTRATION Mean Escape Time -- Sec. Trial Test Cpd. -- 20 mg/kg Control ______________________________________ 1 30.0 ± 0.0 30.0 ± 0.0 2 29.2 ± 0.4 29.7 ± 0.2 3 20.0 ± 4.3 27.2 ± 1.8 4 7.5 ± 2.9 19.7 ± 2.4 5 4.7 ± 0.8 16.0 ± 3.2 6 7.2 ± 2.0 14.7 ± 3.6 7 8.0 ± 1.6 18.7 ± 4.5 8 10.5 ± 3.7 11.0 ± 2.6 9 7.0 ± 1.2 13.0 ± 3.2 10 7.5 ± 2.1 15.5 ± 4.1 Retention Trial -- 1 hour after last Acquisition Trial: 6.7 ± 1.4 15.7 ± 5.0 ______________________________________

NC1=NC(=O)C2(CCNCC2)O1 [2-amino-1-oxa-3,8-diazaspiro[4,5]dec-2-en-4-one]
Activity (central nervous system; dose 50 mg/kg): depressant
LD50 [1]: > 1000 mg/kg

CC1CC(C)CC2(C1)OC(N)=NC2=O (stereo not drawn) [2-amino-7,9-dimethyl-1-oxa-3-aza-spiro[4,5]dec-2-en-4-one]
Mean Escape Time, Retention Trial (rats; oral, 20 mg/kg): 6.7 ± 1.4 s
Mean Escape Time (rats; oral, 20 mg/kg, acquisition trial 1): 30.0 ± 0.0 s
Mean Escape Time (rats; oral, 20 mg/kg, acquisition trial 2): 29.2 ± 0.4 s
Mean Escape Time (rats; oral, 20 mg/kg, acquisition trial 3): 20.0 ± 4.3 s
Mean Escape Time (rats; oral, 20 mg/kg, acquisition trial 4): 7.5 ± 2.9 s
Mean Escape Time (rats; oral, 20 mg/kg, acquisition trial 5): 4.7 ± 0.8 s
Mean Escape Time (rats; oral, 20 mg/kg, acquisition trial 6): 7.2 ± 2.0 s
Mean Escape Time (rats; oral, 20 mg/kg, acquisition trial 7): 8.0 ± 1.6 s
Mean Escape Time (rats; oral, 20 mg/kg, acquisition trial 8): 10.5 ± 3.7 s
Mean Escape Time (rats; oral, 20 mg/kg, acquisition trial 9): 7.0 ± 1.2 s
Mean Escape Time (rats; oral, 20 mg/kg, acquisition trial 10): 7.5 ± 2.1 s
Activity (central nervous system; dose 1 mg/kg): stimulant
LD50 [1]: ~300 mg/kg

NC1=NC(=O)C2(CCCCC2)O1 [2-amino-1-oxa-3-azaspiro[4,5]dec-2-en-4-one]
Activity (central nervous system; dose 200 mg/kg): depressant
LD50 [1]: > 1000 mg/kg

NC1=NC(=O)C2(CCC3CCCCC3C2)O1 (stereo not drawn) [2'-amino-octahydrospiro[naphthalene-2(1H),5'-[2]oxazolin]-4'-one]
Activity (central nervous system; dose 500 mg/kg): depressant
LD50 [1]: > 1000 mg/kg

NC1=NC(=O)C2(CC3CCC2C3)O1 (stereo not drawn) [2'-aminospiro[norbornane-2,5'-[2]oxazolin]-4'-one]
Activity (central nervous system; dose 500 mg/kg): depressant
LD50 [1]: > 1000 mg/kg

NC1=NC(=O)C2(CCCC2)O1 [2-amino-1-oxa-3-azaspiro[4,4]non-2-en-4-one]
Activity (central nervous system; dose 500 mg/kg): depressant
LD50 [1]: > 1000 mg/kg

CN1CCC2(CC1)OC(N)=NC2=O [2-amino-8-methyl-1-oxa-3,8-diazaspiro[4,5]dec-2-en-4-one]
Mean Escape Time, Retention Trial (rats; intraperitoneal, 10 mg/kg): 13.8 ± 1.4 s
Mean Escape Time (rats; intraperitoneal, 10 mg/kg, acquisition trial 1): 29.8 ± 0.3 s
Mean Escape Time (rats; intraperitoneal, 10 mg/kg, acquisition trial 2): 29.5 ± 0.5 s
Mean Escape Time (rats; intraperitoneal, 10 mg/kg, acquisition trial 3): 13.8 ± 1.7 s
Mean Escape Time (rats; intraperitoneal, 10 mg/kg, acquisition trial 4): 12.0 ± 2.1 s
Mean Escape Time (rats; intraperitoneal, 10 mg/kg, acquisition trial 5): 7.0 ± 1.6 s
Mean Escape Time (rats; intraperitoneal, 10 mg/kg, acquisition trial 6): 7.8 ± 1.5 s
Mean Escape Time (rats; intraperitoneal, 10 mg/kg, acquisition trial 7): 6.5 ± 1.6 s
Mean Escape Time (rats; intraperitoneal, 10 mg/kg, acquisition trial 8): 7.0 ± 2.2 s
Mean Escape Time (rats; intraperitoneal, 10 mg/kg, acquisition trial 9): 10.8 ± 3.0 s
Mean Escape Time (rats; intraperitoneal, 10 mg/kg, acquisition trial 10): 9.0 ± 1.2 s
Activity (central nervous system; dose 10 mg/kg): stimulant
LD50 [1]: > 1000 mg/kg

CC1CC2(CC(C)C1C)OC(N)=NC2=O (stereo not drawn) [2-amino-7,8,9-trimethyl-1-oxa-3-azaspiro[4,5]dec-2-en-4-one]
Activity (central nervous system; dose 200 mg/kg): depressant
LD50 [1]: > 1000 mg/kg

NC1=NC(=O)C2(CCN(Cc3ccccc3)CC2)O1 [2-amino-8-benzyl-1-oxa-3,8-diazaspiro[4,5]dec-2-en-4-one]
Activity (central nervous system; dose 200 mg/kg): depressant
LD50 [1]: > 1000 mg/kg

NC1=NC(=O)C2(CCC2)O1 [6-amino-5-oxa-7-azaspiro[3,4]oct-6-en-8-one]
Activity (central nervous system; dose 200 mg/kg): depressant
LD50 [1]: > 500 mg/kg

CC1CCC2(CC1)OC(N)=NC2=O (stereo not drawn) [2-amino-8-methyl-1-oxa-2-aza-spiro[4,5]dec-2-en-4-one]
Activity (central nervous system; dose 500 mg/kg): depressant
LD50 [1]: > 1000 mg/kg

CC1CC2(CC(C)N1C)OC(N)=NC2=O (stereo not drawn) [2-amino-7,8,9-trimethyl-1-oxa-3,8-diazaspiro[4,5]-2-en-4-one]
Activity (central nervous system; dose 20 mg/kg): depressant
LD50 [1]: > 500 mg/kg

CC(C)N1CCC2(CC1)OC(N)=NC2=O [2-amino-8-isopropyl-1-oxa-3,8-diazaspiro-[4,5]dec-2-en-4-one]
Activity (central nervous system; dose 100 mg/kg): depressant
LD50 [1]: 1000 mg/kg

NC1=NC(=O)C2(CCCCCCC2)O1 [2-amino-1-oxa-3-azaspiro[4,7]dodec-2-en-4-one]
Activity (central nervous system; dose 500 mg/kg): depressant
LD50 [1]: > 1000 mg/kg

CC1CC(C)(C)CC2(C1)OC(N)=NC2=O (stereo not drawn) [2-amino-7,7,9-trimethyl-1-oxa-3-azaspiro[4,5]dec-2-en-4-one]
Mean Escape Time, Retention Trial (rats; intraperitoneal, 20 mg/kg): 8.0 ± 2.6 s
Mean Escape Time (rats; intraperitoneal, 20 mg/kg, acquisition trial 1): 30.0 ± 0.0 s
Mean Escape Time (rats; intraperitoneal, 20 mg/kg, acquisition trial 2): 29.0 ± 0.4 s
Mean Escape Time (rats; intraperitoneal, 20 mg/kg, acquisition trial 3): 21.2 ± 3.0 s
Mean Escape Time (rats; intraperitoneal, 20 mg/kg, acquisition trial 4): 17.7 ± 5.4 s
Mean Escape Time (rats; intraperitoneal, 20 mg/kg, acquisition trial 5): 14.7 ± 1.8 s
Mean Escape Time (rats; intraperitoneal, 20 mg/kg, acquisition trial 6): 18.0 ± 3.9 s
Mean Escape Time (rats; intraperitoneal, 20 mg/kg, acquisition trial 7): 10.0 ± 2.1 s
Mean Escape Time (rats; intraperitoneal, 20 mg/kg, acquisition trial 8): 5.5 ± 1.8 s
Mean Escape Time (rats; intraperitoneal, 20 mg/kg, acquisition trial 9): 6.7 ± 2.5 s
Mean Escape Time (rats; intraperitoneal, 20 mg/kg, acquisition trial 10): 7.2 ± 2.8 s
Activity (central nervous system; dose 0.1 mg/kg): stimulant
LD50 [1]: > 750 mg/kg

NC1=NC(=O)C2(CCN(CCc3ccccc3)CC2)O1 [2-amino-8-phenethyl-1-oxa-3,8-diazaspiro-[4,5]dec-2-en-4-one]
Activity (central nervous system; dose 200 mg/kg): depressant
LD50 [1]: > 1000 mg/kg

NC1=NC(=O)C2(CCCCCC2)O1 [2-amino-1-oxa-3-azaspiro[4,6]undec-2-en-4-one]
Activity (central nervous system; dose 500 mg/kg): depressant
LD50 [1]: > 1000 mg/kg

CC1CCCC2(C1)OC(N)=NC2=O (stereo not drawn) [2-amino-7-methyl-1-oxa-3-aza-spiro[4,5]dec-2-en-4-one]
Activity (central nervous system; dose 200 mg/kg): depressant
LD50 [1]: ~750 mg/kg
